Values of other authors in patent publication US20260207703A1 (priority 2023, published 2026).

Settings: in vivo

SMILES | half-life
C=CCN1CC[C@]23c4c5ccc(O)c4O[C@H]2C(=O)CC[C@@]3(O)[C@H]1C5 [Naloxone] | ~ 1 hr.
C=C1CC[C@@]2(O)[C@H]3Cc4ccc(O)c5c4[C@@]2(CCN3CC2CC2)[C@H]1O5 [nalmefene, 17-cyclopropylmethyl-4,5α-epoxy-6-methylenemorphinan-3,14-diol] | 8 to 11 h
